The target of this test is JAK2 (Homo sapiens, UniProt O60674). Nature of the test: cell-free kinase activity assay with purified JAK2 (HotSpot, Reaction Biology). It counts as biochemical.

pIC50: −log10 of the molar value.

Chain of JAK2 (O60674 whole entry): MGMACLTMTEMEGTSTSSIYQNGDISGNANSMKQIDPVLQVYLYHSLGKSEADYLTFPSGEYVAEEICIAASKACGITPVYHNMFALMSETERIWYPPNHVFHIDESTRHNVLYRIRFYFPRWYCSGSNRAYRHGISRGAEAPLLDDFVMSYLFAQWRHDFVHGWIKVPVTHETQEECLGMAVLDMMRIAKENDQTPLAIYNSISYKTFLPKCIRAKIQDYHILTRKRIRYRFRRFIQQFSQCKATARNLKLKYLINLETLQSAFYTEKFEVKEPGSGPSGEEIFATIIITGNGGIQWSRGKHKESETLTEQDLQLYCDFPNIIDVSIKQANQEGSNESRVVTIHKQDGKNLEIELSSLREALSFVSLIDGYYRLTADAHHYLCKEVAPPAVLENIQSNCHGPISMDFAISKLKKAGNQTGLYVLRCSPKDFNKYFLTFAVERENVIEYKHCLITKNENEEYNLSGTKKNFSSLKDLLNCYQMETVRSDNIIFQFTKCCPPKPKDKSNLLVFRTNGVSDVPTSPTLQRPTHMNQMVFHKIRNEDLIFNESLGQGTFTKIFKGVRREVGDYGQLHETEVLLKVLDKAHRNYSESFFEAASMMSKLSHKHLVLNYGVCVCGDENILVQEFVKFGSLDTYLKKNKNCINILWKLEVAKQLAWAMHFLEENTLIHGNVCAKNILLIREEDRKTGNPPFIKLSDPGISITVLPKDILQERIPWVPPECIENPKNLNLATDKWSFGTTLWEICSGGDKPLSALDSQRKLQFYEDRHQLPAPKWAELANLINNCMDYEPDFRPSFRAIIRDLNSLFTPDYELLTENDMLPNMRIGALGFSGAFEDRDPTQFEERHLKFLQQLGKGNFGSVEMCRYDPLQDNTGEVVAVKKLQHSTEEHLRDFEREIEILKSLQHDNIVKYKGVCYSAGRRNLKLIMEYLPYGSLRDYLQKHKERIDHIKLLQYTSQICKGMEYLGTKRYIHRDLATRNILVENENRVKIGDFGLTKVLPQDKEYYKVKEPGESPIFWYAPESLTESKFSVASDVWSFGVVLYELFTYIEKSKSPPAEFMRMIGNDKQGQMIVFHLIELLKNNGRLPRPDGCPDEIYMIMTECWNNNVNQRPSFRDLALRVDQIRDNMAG

The term pIC50 denotes the IC50 on a negative log10 scale, so that one unit is a factor of ten. Low readings indicate a high IC50, high ones a low IC50. In turn, `COc1cc(/C=C/C(=O)CC(=O)/C=C/c2ccc(O)c(OC)c2)ccc1O` [curcumin] gave a negative-log IC50 (pIC50) of about 5.10.

For the origin of these results see PMC6280482, “The natural polyphenol curcumin induces apoptosis by suppressing STAT3 signaling in esophageal squamous cell carcinoma” (Journal of Experimental & Clinical Cancer Research : CR, 2018).
